From US6815451B2, “1,2,3,4-Tetrahydroisoquinolines derivatives as urotensin II receptor antagonists” (Actelion Pharmaceuticals Ltd., priority 2001, dated 2004)

What was measured:
isolated rat aortic arch = conditions: for pD2′ (functional inhibitory potency): Wistar rat aortic arch rings, 20 min incubation with test compound before cumulative doses of human urotensin II
Protocol: 2) Inhibition of Human Urotensin II-Induced Contractions of Isolated Rat Aortic Arch Adult Wistar rats are anesthetized (CO2 inhalation) and exsanguinated. The aortic arch is excised, dissected and cut in 3 rings of 3 mm, ring #1 being the more proximal and ring #3 being the more distal. Each ring is suspended in a 10 mL isolated organ bath filled with Krebs-Henseleit solution (in mM; NaCl 115, KCl 4.7, MgSO4 1.2, KH2PO4 1.5, NaHCO3 25, CaCl2 2.5, glucose 10; pH 7.4) kept at 37° C. and gassed with 95% O2 and 5% CO2. The rings are connected to force transducers and isometric tension is recorded (EMKA Technologies SA, Paris, France). The rings are stretched to a resting tension of 3 g. […] The functional inhibitory potency of the test compound is assessed by calculating the pD2′ according to the formula: pD2′=Log (CR-1)-Log [B], where CR is the ratio of the maximal effect without/with antagonist and [B] the concentration of the antagonist.

[1] = target: T1, urotensin II receptor on TE-671 rhabdomyosarcoma cells (Homo sapiens, UniProt Q9UKP6); assay: Inhibition of human [125I]-urotensin II binding to a rhabdomyosarcoma cell line (whole cell binding); conditions: TE-671 whole cells, 20 pM human [125I]urotensin II, 4 h at 20° C.
T1 construct: host or cells: TE-671 rhabdomyosarcoma cells
T1 sequence (Q9UKP6 1-389): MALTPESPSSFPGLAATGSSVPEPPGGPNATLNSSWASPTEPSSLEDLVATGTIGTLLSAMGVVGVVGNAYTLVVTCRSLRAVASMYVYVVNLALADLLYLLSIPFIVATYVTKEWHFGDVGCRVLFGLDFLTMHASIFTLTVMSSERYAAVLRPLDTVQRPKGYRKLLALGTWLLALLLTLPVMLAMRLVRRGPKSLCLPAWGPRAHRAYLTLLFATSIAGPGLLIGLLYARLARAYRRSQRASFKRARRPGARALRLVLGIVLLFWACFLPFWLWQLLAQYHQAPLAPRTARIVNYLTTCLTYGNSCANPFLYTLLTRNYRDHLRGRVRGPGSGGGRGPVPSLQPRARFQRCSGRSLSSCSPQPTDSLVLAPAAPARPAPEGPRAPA
Protocol: 1) Inhibition of Human [125I]-urotensin II Binding to a Rhabdomyosarcoma Cell Line
Whole cell binding of human [^125I]-urotensin II is performed using human-derived TE-671 rhabdomyosarcoma cells (Deutsche Sammlung von Mikroorganismen und Zellkulturen, cell line #ACC-263), by methods adapted from a whole cell endothelin binding assay (Breu V et al., In vitro characterization of Ro-46-2005, a novel synthetic non-peptide antagonist of ETA and ETB receptors. FEBS Lett. 1993, 334, 210-214).
The assay is performed in 250 μL Dubecco's modified eagle medium, pH 7.4 (GIBCO BRL, CatNo 31885-023), including 25 mM HEPES (Fluka, CatNo 05473), 1.0% DMSO (Fluka, CatNo 41644) and 0.5% (w/v) BSA Fraction V (Fluka, CatNo 05473) in polypropylene microtiter plates (Nunc, CatNo 442587). 300,000 suspended cells are incubated with gentle shaking for 4 h at 20° C. with 20 pM human [^125I]Urotensin II (Anawa Trading SA, Wangen, Switzerland, 2130 Ci/mmol) and increasing concentrations of unlabeled antagonist. Minimum and maximum binding are derived from samples with and without 100 nM unlabelled U-II, respectively. After the 4 h incubation period, the cells are filtered onto GF/C filter plates (Packard, CatNo 6005174). The filter plates are dried, and then 50 μL scintillation cocktail (Packard, MicroScint 20, CatNo 6013621) is added to each well. The filter plates are counted in a microplate counter (Packard Bioscience, TopCount NXT).
All test compounds are dissolved and diluted in 100% DMSO. A […] dilution into assay buffer is performed prior to addition to the assay. […] Specific binding is the difference between maximum binding and minimum binding, as described above.

Structure (SMILES)	EC50 (isolated rat aortic arch) [µM]	IC50 [1] [µM]	pD2′ (functional inhibitory potency) (isolated rat aortic arch)
CC(C)[C@H](NC(=O)[C@@H]1CSSC[C@H](NC(=O)[C@H](CC(=O)O)NC(=O)[C@@H]2CCCN2C(=O)[C@@H](NC(=O)[C@@H](N)CCC(=O)O)[C@@H](C)O)C(=O)N[C@@H](Cc2ccccc2)C(=O)N[C@@H](Cc2c[nH]c3ccccc23)C(=O)N[C@@H](CCCCN)C(=O)N[C@@H](Cc2ccc(O)cc2)C(=O)N1)C(=O)O [human U-II, reference compound]	0.00109 ± 0.0001	–	–
COc1cc2c(cc1OC)C(CCc1ccccc1)N(CCNC(=O)Nc1cc(C)nc3ccccc13)CC2 (stereo not shown) [Example 29, 1-[2-(6,7-Dimethoxy-1-phenethyl-3,4-dihydro-1H-isoquinolin-2-yl)-ethyl]-3-(2-methyl-quinolin-4-yl)-urea]	–	0.125	5.23
COc1ccc(CCC2c3cc(OC)c(OC)cc3CCN2CCNC(=O)Nc2cc(C)nc3ccccc23)cc1OC (stereo not shown) [Example 22, 1-(2-{1-[2-(3,4-Dimethoxy-phenyl)-ethyl]-6,7-dimethoxy-3,4-dihydro-1H-isoquinolin-2-yl}-ethyl)-3-(2-methyl-quinolin-4-yl)-urea]	–	0.063	–
COc1cc2c(cc1OC)C(CCc1cc(F)ccc1F)N(CCNC(=O)Nc1cc(C)nc3ccccc13)CC2 (stereo not shown) [Example 20, 1-(2-{1-[2-(2,5-Difluoro-phenyl)-ethyl]-6,7-dimethoxy-3,4-dihydro-1H-isoquinolin-2-yl}-ethyl)-3-(2-methyl-quinolin-4-yl)-urea]	–	0.067	–
COc1ccc(CC2c3c(OC)ccc(OC)c3CCN2CCNC(=O)Nc2ccnc3ccccc23)cc1OC (stereo not shown) [Example 93, 1-{2-[1-(3,4-Dimethoxy-benzyl)-5,8-dimethoxy-3,4-dihydro-1H-isoquinolin-2-yl]-ethyl}-3-quinolin-4-yl-urea]	–	–	5.45
COc1cc2c(c(OC)c1)C(Cc1ccc(OC)c(OC)c1)N(CCNC(=O)Nc1cc(C)nc3ccccc13)CC2 (stereo not shown) [Example 58, 1-{2-[1-(3,4-Dimethoxy-benzyl)-6,8-dimethoxy-3,4-dihydro-1H-isoquinolin-2-yl]-ethyl}-3-(2-methyl-quinolin-4-yl)-urea]	–	0.55	–
